Patent US10479780B2, “Aminopyrazole derivatives” (Chugai Seiyaku Kabushiki Kaisha, priority 2015, dated 2019)

Legend:
Type in all cases: biochemical
human Yes1 enzyme = target: T1, human Yes1 enzyme (Homo sapiens, UniProt P07947); experiment: Yes1 enzyme inhibitory activity (time-resolved fluorometry, biotinylated peptide phosphorylation); conditions: read-out: YES_IC50
T1 construct: made in house
Procedure, shortened: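 Inhibition was expressed against a compound-free control to give IC50, using TR-FRET read-out (Eu-cryptate anti-pTyr antibody, streptavidin-XL665).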

human Src enzyme = target: T2, human Src enzyme (Homo sapiens, UniProt P12931); experiment: Src enzyme inhibitory activity (time-resolved fluorometry, biotinylated peptide phosphorylation); conditions: read-out: SRC_IC50
T2 construct: purchased Carna Biosciences, Inc. 08-173
Procedure, shortened: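 Compounds were tested for blocking tyrosine phosphorylation of a biotinylated peptide substrate by recombinant human Src. Phosphorylated product was quantified by time-resolved fluorometry using europium cryptate and XL665 conjugates, and IC50 was calculated against the compound-free control.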

human Lck enzyme = target: T3, human Lck enzyme (Homo sapiens, UniProt P06239); experiment: Lck enzyme inhibitory activity (time-resolved fluorometry, biotinylated peptide phosphorylation); conditions: read-out: LCK_IC50
T3 construct: purchased Carna Biosciences, Inc. 08-170
Procedure, shortened: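 Readout pairs a europium cryptate-labelled anti-phosphotyrosine antibody with XL665-streptavidin, measured by time-resolved fluorescence. IC50 derived from percent inhibition against untreated controls.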

T2 sequence (P12931 whole entry): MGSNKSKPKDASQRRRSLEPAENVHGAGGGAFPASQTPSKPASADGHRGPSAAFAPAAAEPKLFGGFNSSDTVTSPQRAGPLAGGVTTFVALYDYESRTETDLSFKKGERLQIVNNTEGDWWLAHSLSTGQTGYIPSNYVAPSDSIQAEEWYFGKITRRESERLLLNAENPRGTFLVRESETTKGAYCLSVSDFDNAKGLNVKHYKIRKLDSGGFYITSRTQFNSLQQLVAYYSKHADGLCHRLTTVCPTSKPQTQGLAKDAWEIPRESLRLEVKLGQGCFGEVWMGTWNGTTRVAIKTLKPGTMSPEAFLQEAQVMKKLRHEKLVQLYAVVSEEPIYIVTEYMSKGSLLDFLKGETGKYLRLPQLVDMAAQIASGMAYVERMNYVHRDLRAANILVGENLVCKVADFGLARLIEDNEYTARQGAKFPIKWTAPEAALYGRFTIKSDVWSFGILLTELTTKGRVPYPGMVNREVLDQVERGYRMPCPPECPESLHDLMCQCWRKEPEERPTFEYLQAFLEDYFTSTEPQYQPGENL
T3 sequence (P06239 whole entry): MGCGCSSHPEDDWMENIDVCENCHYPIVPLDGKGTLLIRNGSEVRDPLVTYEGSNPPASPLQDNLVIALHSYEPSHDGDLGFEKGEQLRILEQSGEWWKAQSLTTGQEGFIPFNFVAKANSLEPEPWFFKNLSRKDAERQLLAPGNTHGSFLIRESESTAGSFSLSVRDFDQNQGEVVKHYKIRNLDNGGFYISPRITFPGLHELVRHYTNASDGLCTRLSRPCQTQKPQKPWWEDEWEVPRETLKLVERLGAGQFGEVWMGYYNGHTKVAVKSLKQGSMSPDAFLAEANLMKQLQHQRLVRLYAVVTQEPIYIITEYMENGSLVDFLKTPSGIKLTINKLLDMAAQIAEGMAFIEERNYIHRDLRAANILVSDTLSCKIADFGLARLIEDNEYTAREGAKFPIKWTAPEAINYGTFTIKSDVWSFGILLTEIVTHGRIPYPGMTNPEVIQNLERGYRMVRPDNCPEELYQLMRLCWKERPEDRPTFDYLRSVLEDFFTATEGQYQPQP
T1 sequence (P07947 whole entry): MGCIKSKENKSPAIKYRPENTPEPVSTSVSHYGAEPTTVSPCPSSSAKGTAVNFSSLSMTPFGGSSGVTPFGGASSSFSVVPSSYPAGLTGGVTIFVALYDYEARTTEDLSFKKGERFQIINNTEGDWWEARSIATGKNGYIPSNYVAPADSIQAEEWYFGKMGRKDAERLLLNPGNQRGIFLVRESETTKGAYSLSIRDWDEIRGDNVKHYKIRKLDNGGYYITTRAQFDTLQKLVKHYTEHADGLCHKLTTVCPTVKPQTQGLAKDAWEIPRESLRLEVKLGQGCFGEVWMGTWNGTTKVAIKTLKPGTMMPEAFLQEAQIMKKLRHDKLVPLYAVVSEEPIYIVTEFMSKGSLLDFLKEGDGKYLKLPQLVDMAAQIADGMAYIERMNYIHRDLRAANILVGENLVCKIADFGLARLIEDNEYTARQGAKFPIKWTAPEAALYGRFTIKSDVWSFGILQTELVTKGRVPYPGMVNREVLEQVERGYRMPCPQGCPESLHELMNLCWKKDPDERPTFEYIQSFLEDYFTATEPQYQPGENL

Structure (SMILES)	IC50 (human Yes1 enzyme) [nM]	IC50 (human Src enzyme) [nM]	IC50 (human Lck enzyme) [nM]
Cc1cc(Oc2ccccc2Cl)nc(C)c1-n1ncc(C(=O)c2cc3cc(F)c(NS(C)(=O)=O)cc3[nH]2)c1N [Example 5-1-051, N-[2-[5-amino-1-[6-(2-chlorophenoxy)-2,4-dimethylpyridin-3-yl]pyrazole-4-carbonyl]-5-fluoro-1H-indol-6-yl]methanesulfonamide]	60	320	82
Cc1cc(Oc2cccc(Cl)c2)nc(C)c1-n1ncc(C(=O)c2cc3cc(F)c(NS(C)(=O)=O)cc3[nH]2)c1N [Example 5-1-052, N-[2-[5-amino-1-[6-(3-chlorophenoxy)-2,4-dimethylpyridin-3-yl]pyrazole-4-carbonyl]-5-fluoro-1H-indol-6-yl]methanesulfonamide]	120	810	250
Cc1cc(Oc2cccc(F)c2F)nc(C)c1-n1ncc(C(=O)c2cc3cc(F)c(NS(C)(=O)=O)cc3[nH]2)c1N [Example 5-1-053, N-[2-[5-amino-1-[6-(2,3-difluorophenoxy)-2,4-dimethylpyridin-3-yl]pyrazole-4-carbonyl]-5-fluoro-1H-indol-6-yl]methanesulfonamide]	65	430	97
Cc1cc(Oc2cc(F)cc(F)c2)nc(C)c1-n1ncc(C(=O)c2cc3cc(F)c(NS(C)(=O)=O)cc3[nH]2)c1N [Example 5-1-054, N-[2-[5-amino-1-[6-(3,5-difluorophenoxy)-2,4-dimethylpyridin-3-yl]pyrazole-4-carbonyl]-5-fluoro-1H-indol-6-yl]methanesulfonamide]	150	1000	350
Cc1cc(Oc2cc(Cl)ccc2Cl)ncc1-n1ncc(C(=O)c2cc3cc(F)c(NS(C)(=O)=O)cc3[nH]2)c1N [Example 5-1-055, N-[2-[5-amino-1-[6-(2,5-dichlorophenoxy)-4-methylpyridin-3-yl]pyrazole-4-carbonyl]-5-fluoro-1H-indol-6-yl]methanesulfonamide]	16	190	94

Compounds with a lower IC50 (human Yes1 enzyme), results first:

IC50 (human Yes1 enzyme) [nM]	IC50 (human Src enzyme) [nM]	IC50 (human Lck enzyme) [nM]	Structure (SMILES)
3.4	130	33	Cc1cc(Oc2cccc(F)c2)ncc1-n1ncc(C(=O)c2cc3cc(F)c(NS(=O)(=O)CCCF)cc3[nH]2)c1N [Example 5-1-059, N-[2-[5-amino-1-[6-(3-fluorophenoxy)-4-methylpyridin-3-yl]pyrazole-4-carbonyl]-5-fluoro-1H-indol-6-yl]-3-fluoropropane-1-sulfonamide]
2	150	31	Cc1cc2cc(C(=O)c3cnn(-c4cnc(Oc5ccccc5F)cc4C)c3N)[nH]c2cc1NS(=O)(=O)NC1CCOCC1 [Example 5-1-057, [5-amino-1-[6-(2-fluorophenoxy)-4-methylpyridin-3-yl]pyrazol-4-yl]-[5-methyl-6-(oxan-4-ylsulfamoylamino)-1H-indol-2-yl] methanone]
1.7	76	24	Cc1cc(Oc2ccccc2F)ncc1-n1ncc(C(=O)c2cc3cc(F)c(NS(=O)(=O)CC(=O)NC(C)C)cc3[nH]2)c1N [Example 5-1-056, 2-[[2-[5-amino-1-[6-(2-fluorophenoxy)-4-methylpyridin-3-yl]pyrazole-4-carbonyl]-5-fluoro-1H-indol-6-yl]sulfamoyl]-N-propan-2-ylacetamide]
1.6	58	25	Cc1cc2cc(C(=O)c3cnn(-c4cnc(Oc5ccccc5F)cc4C)c3N)[nH]c2cc1NS(=O)(=O)CC(=O)NC(C)C [Example 5-1-058, 2-[[2-[5-amino-1-[6-(2-fluorophenoxy)-4-methylpyridin-3-yl]pyrazole-4-carbonyl]-5-methyl-1H-indol-6-yl]sulfamoyl]-N-propan-2-ylacetamide]
0.77	23	1.8	Cc1cc(Oc2ccccc2Cl)ncc1-n1ncc(C(=O)c2cc3cc(NS(C)(=O)=O)c(F)cc3[nH]2)c1N [Example 5-1-050, N-[2-[5-amino-1-[6-(2-chlorophenoxy)-4-methylpyridin-3-yl]pyrazole-4-carbonyl]-6-fluoro-1H-indol-5-yl]methanesulfonamide]
